Measurements taken from the supplement of paper PMC10307832.

Assays:
Experiment in all cases: relative viability (nuclei count vs DMSO), 5 days (fraction); higher = more cells survive
Bemcentinib + Pemetrexed = compound: Nc1nc(Nc2ccc3c(c2)CC[C@@H](N2CCCC2)CC3)nn1-c1cc2c(nn1)-c1ccccc1CCC2 [Bemcentinib] + Nc1nc2[nH]cc(CCc3ccc(C(=O)N[C@@H](CCC(=O)O)C(=O)O)cc3)c2c(=O)[nH]1 [Pemetrexed] (partner 0.2 µM)
In short: (§1)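 Relative viability was taken as the ratio of nuclei in treated wells to nuclei in vehicle wells. Lung cancer cell lines in 1536-well plates received compounds by pin tool one day after seeding, either one drug alone or a fixed anchor-drug dose plus five library-drug doses (not always all listed) in √10 steps. Nuclei were counted on 4× images after 5 days of treatment, and values are medians of duplicate plates.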

Axitinib + Pictilisib = compound: CNC(=O)c1ccccc1Sc1ccc2c(/C=C/c3ccccn3)n[nH]c2c1 [Axitinib] + CS(=O)(=O)N1CCN(Cc2cc3nc(-c4cccc5[nH]ncc45)nc(N4CCOCC4)c3s2)CC1 [Pictilisib] (partner 1 µM)
In short: as §1

[1] = compound: Nc1nc(Nc2ccc3c(c2)CC[C@@H](N2CCCC2)CC3)nn1-c1cc2c(nn1)-c1ccccc1CCC2 [Bemcentinib] + CC(=O)c1c(C)c2cnc(Nc3ccc(N4CCNCC4)cn3)nc2n(C2CCCC2)c1=O [Palbociclib] (partner 0.5 µM)
In short: as §1

Axitinib + Linsitinib = compound: CNC(=O)c1ccccc1Sc1ccc2c(/C=C/c3ccccn3)n[nH]c2c1 [Axitinib] + C[C@]1(O)C[C@@H](c2nc(-c3ccc4ccc(-c5ccccc5)nc4c3)c3c(N)nccn32)C1 [Linsitinib] (partner 1 µM)
In short: as §1

Cell Line | relative viability (Bemcentinib + Pemetrexed; first compound 0.04 µM) | relative viability (Bemcentinib + Pemetrexed; first compound 0.1265 µM) | relative viability (Bemcentinib + Pemetrexed; first compound 0.4 µM) | relative viability (Bemcentinib + Pemetrexed; first compound 1.265 µM) | relative viability (Bemcentinib + Pemetrexed; first compound 4 µM) | relative viability (Axitinib + Pictilisib; first compound 0.005 µM) | relative viability (Axitinib + Pictilisib; first compound 0.01581 µM) | relative viability (Axitinib + Pictilisib; first compound 0.05 µM) | relative viability (Axitinib + Pictilisib; first compound 0.1581 µM) | relative viability (Axitinib + Pictilisib; first compound 0.5 µM) | relative viability ([1]; first compound 0.04 µM) | relative viability ([1]; first compound 0.1265 µM) | relative viability ([1]; first compound 0.4 µM) | relative viability ([1]; first compound 1.265 µM) | relative viability ([1]; first compound 4 µM) | relative viability (Axitinib + Linsitinib; first compound 0.005 µM) | relative viability (Axitinib + Linsitinib; first compound 0.01581 µM) | relative viability (Axitinib + Linsitinib; first compound 0.05 µM) | relative viability (Axitinib + Linsitinib; first compound 0.1581 µM) | relative viability (Axitinib + Linsitinib; first compound 0.5 µM)
NCI-H1793 | 0.853 | 1.05 | 0.933 | 0.853 | 0.813 | 0.258 | 0.253 | 0.326 | 0.307 | 0.256 | 0.331 | 0.369 | 0.306 | 0.26 | 0.322 | 0.85 | 0.836 | 0.935 | 1.01 | 0.881
HOP-62 | 0.348 | 0.357 | 0.385 | 0.37 | 0.359 | 0.679 | 0.861 | 0.735 | 0.792 | 0.583 | 0.46 | 0.501 | 0.485 | 0.474 | 0.463 | 0.961 | 0.977 | 0.777 | 0.894 | 1.06
NCI-H1395 |  | 1.03 | 0.903 | 0.797 | 0.82 | 0.612 | 0.559 | 0.634 | 0.528 | 0.684 |  | 0.621 | 0.645 | 0.64 | 0.631 | 1.2 | 0.913 | 1.37 | 0.97 | 1.18
NCI-H2347 | 0.558 | 0.457 | 0.428 | 0.434 | 0.437 | 0.605 | 0.584 | 0.876 | 0.855 | 0.783 | 0.438 | 0.467 | 0.385 | 0.443 | 0.443 | 1.07 | 0.929 | 1.08 | 1.07 | 0.914
HCC-15 | 0.231 | 0.219 | 0.226 | 0.218 | 0.221 | 0.696 | 0.828 | 0.761 | 0.736 | 0.737 | 0.767 | 0.976 | 0.739 | 0.728 | 0.737 | 0.959 | 0.879 | 0.88 | 0.838 | 0.895
HCC-44 | 0.676 | 0.665 | 0.684 | 0.723 | 0.679 | 0.56 | 0.734 | 0.682 | 0.695 | 0.546 | 1.02 | 1.03 | 0.96 | 1.01 | 1.1 | 0.756 | 0.699 | 0.746 | 0.692 | 0.733
PC-14 | 0.131 | 0.13 | 0.139 | 0.141 | 0.124 | 0.919 | 0.699 | 0.676 | 0.731 | 0.834 | 0.588 | 0.51 | 0.737 | 0.596 | 0.485 | 1.07 | 0.895 | 1.03 | 0.945 | 0.944
NCI-H2085 | 0.857 | 0.945 | 0.861 | 0.876 | 0.714 | 0.457 | 0.467 | 0.441 | 0.507 | 0.373 | 0.456 | 0.449 | 0.44 | 0.46 | 0.47 | 1.02 | 1 | 0.845 | 0.794 | 1
